In this assay the target is T1, TbCaV (TbCav; FS179; TbCaCh) (Trypanosoma brucei, UniProt Q38BV7).
T1 construct: gene Tb10.70.4750; native full-length channel in intact T. brucei cells, 2693 aa, approx. 301 kDa, single subunit, untagged wild type
As to the kind of experiment: Ca2+ entry into intact T. brucei, Cal-590 fluorescence. In kind it is cell-based. The note with it: wild-type T. brucei BSF (Figure 9A inset); 1.8 mM Ca2+ added after 100 μM EGTA, BAG buffer pH 7.0; whole-cell Ca2+ entry attributed to TbCaV, direct binding not shown.

T1 sequence (Q38BV7 1-2693): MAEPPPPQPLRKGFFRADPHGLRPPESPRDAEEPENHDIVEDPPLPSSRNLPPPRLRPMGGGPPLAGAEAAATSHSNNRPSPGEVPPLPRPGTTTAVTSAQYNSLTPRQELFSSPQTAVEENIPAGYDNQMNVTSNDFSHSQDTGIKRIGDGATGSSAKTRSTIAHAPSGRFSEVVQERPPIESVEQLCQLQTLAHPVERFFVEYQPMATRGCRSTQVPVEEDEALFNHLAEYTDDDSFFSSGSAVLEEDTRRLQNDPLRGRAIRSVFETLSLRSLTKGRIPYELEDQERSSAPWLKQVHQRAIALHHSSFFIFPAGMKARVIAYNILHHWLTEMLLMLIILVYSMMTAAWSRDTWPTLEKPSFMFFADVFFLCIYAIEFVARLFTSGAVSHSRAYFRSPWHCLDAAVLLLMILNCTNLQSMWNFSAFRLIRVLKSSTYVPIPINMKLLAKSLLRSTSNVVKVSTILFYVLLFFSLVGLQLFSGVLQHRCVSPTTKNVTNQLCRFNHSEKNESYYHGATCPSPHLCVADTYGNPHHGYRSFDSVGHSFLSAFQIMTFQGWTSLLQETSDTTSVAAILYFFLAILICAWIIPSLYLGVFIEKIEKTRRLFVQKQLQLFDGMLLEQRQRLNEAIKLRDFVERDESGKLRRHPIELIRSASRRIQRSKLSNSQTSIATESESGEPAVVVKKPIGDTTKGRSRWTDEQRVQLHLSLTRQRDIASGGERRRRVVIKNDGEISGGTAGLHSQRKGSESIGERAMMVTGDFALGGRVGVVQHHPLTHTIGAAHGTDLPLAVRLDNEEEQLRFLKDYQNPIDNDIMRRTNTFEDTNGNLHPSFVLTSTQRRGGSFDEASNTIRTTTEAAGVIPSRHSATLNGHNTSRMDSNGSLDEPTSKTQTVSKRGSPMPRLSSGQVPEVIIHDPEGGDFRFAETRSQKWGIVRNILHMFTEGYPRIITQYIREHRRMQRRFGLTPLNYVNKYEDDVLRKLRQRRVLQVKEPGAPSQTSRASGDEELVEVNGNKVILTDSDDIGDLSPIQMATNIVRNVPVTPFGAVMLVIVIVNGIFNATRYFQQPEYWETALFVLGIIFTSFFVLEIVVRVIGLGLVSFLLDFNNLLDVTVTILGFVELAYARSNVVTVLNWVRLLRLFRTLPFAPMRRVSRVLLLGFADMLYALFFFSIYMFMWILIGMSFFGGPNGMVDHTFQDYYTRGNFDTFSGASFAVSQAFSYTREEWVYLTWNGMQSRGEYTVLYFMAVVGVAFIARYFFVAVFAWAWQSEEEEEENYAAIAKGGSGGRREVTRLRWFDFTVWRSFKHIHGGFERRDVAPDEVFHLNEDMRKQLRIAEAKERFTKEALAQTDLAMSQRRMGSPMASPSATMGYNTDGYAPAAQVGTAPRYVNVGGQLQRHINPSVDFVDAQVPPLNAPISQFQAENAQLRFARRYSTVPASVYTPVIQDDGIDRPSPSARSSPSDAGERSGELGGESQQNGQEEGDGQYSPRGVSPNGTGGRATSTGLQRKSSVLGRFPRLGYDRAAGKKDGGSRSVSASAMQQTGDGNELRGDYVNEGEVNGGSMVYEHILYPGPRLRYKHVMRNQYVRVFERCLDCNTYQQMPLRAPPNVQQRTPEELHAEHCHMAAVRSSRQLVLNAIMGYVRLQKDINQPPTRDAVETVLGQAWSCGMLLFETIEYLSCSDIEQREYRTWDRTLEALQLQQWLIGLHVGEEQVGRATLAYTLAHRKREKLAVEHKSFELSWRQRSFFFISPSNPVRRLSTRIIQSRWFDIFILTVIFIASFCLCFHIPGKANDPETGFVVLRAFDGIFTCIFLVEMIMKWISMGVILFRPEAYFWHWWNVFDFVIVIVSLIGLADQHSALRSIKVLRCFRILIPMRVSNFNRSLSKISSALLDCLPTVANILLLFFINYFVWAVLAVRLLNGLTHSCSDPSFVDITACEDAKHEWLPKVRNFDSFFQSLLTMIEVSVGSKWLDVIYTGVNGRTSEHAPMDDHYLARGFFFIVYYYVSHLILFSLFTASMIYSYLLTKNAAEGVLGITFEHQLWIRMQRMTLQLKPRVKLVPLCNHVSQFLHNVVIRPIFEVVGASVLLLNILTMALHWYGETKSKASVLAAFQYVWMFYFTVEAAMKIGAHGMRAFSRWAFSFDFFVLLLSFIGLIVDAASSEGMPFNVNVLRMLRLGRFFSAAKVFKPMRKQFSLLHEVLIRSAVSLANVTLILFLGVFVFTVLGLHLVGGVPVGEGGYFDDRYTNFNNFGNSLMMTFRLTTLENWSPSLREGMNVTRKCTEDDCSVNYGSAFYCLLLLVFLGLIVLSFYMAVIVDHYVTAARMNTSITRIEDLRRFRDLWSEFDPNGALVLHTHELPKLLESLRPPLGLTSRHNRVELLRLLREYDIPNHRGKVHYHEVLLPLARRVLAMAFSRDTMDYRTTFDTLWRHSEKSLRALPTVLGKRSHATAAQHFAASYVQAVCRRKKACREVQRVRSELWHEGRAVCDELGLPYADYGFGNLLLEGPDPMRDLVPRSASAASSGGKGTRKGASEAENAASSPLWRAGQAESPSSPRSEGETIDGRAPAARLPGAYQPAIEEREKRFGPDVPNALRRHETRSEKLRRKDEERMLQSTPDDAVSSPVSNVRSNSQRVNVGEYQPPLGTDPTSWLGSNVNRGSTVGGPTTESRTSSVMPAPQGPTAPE

The IC50 is the concentration needed to halve the response being measured. Higher therefore signals weaker potency in that assay. In turn, `CC(=O)Nc1ccc([N+](=O)[O-])c2nonc12` [NBD-A, N-(7-nitro-2,1,3-benzoxadiazol-4-yl) acetamide] gave a concentration for half-maximal inhibition (IC50) of 1460 ± 30 nM.

For the origin of these results see publication PMC12172032, “Chemical and Genetic Validation of an Essential Calcium Entry Channel of Trypanosoma brucei as a Therapeutic Target” (ACS Infectious Diseases, 2025).
